Molecules are shown by their SMILES. Entries after “also recorded” stand apart in the source; their conditions may differ.

Holding throughout (assay type): in vivo
Data set [1] in a line: Acute toxicity and resorptive action in white mice, intragastric administration. The settings on record: mouse, in vivo, po, intragastric administration, N = 10, Litchfield–Wilcoxon. As to the method:
(§1) The acute toxicity and resorptive action were determined in white mice weighing 20–24 g by gradual oral administration at doses of 1–5000 mg/kg.
(§2) The animals were kept under standard nursery conditions with a natural 12-h light-dark cycle, at an air temperature of 20 ± 2 °C. The animals had unlimited access to food and water. The experiments were performed in accordance with the International Convention for the Protection of Vertebrate Animals used for Experimental and Scientific Purposes (Strasbourg, 1986). Each substance was tested on 10 mice and LD50 was determined graphically by the well-known Litchfield–Wilcoxon method.

A further data set has as its system rabbit eye cornea. The experiment in a line: Local anesthetic activity, rabbit eye cornea terminal anesthesia test. The settings on record: for Onset of Anesthesia / Total Duration of Anesthesia / Duration of Complete Anesthesia / Duration of complete anesthesia, times longer than lidocaine: rabbit corneal model; for Onset of Anesthesia / Total Duration of Anesthesia / Duration of Complete Anesthesia: 1% aqueous solution; for Duration of Complete Anesthesia: percentage of the anesthetic activity of lidocaine (=100%); for Duration of complete anesthesia, times longer than lidocaine: 1% concentration; for Local irritant effects on rabbit eyes: concentrations studied. As to the method: Local anesthetic activity was evaluated using the rabbit eye cornea terminal anesthesia test on 2.0–2.5 kg male chinchilla rabbits after introduction of total 0.4 mL (0.2 mL twice with an interval of 30 s) of 1.0 % solutions of the studied substances. Lidocaine was used as an etalon drug. Each substance was tested on three rabbits.

The next data set has as its system white mice. The experiment in a line: Acute toxicity and resorptive action in white mice, intragastric administration. The settings on record: for Decrease of acute toxicity compared with 3a: intragastric, relative to parent compound 3a. The procedure:
as §1, §2

In data set [1], `COc1cc2c(cc1OC)C(c1ccccc1)NCC2` (centres unmarked) [Compound 3a, 1-(Phenyl)-6,7-dimethoxy-1,2,3,4-tetrahydroisoquinoline] had an LD50 of 280 mg/kg. For the same compound, in the data set with rabbit eye cornea, the “Onset of Anesthesia” value is listed as 3.0 ± 1.1 min, the “Total Duration of Anesthesia” value turned out to be 53.0 ± 4.6 min and the “Duration of Complete Anesthesia” value was “+50%”.

For the compound `COc1cc2c(cc1OC)C(c1ccccc1O)NCC2` (centres unmarked) [Compound 3b, 1-(2′-Hydroxyphenyl)-6,7-dimethoxy-1,2,3,4-tetrahydroisoquinoline], the “Decrease of acute toxicity compared with 3a” value (from here on “Decrease of acute toxicity”) in the data set on white mice is “did not result in a significant decrease of toxicity”. Moreover, in data set [1], the LD50 stood at 375 mg/kg. In the data set with rabbit eye cornea, the “Onset of Anesthesia” value was determined as 1.0 ± 0.4 min, the “Total Duration of Anesthesia” value stood at 44.0 ± 1.5 min and the “Duration of Complete Anesthesia” value is reported as “+50%”.

On to `COc1ccc(C2NCCc3cc(OC)c(OC)cc32)cc1O` (centres unmarked) [Compound 3c, 1-(3′-Hydroxy-4′-methoxyphenyl)-6,7-dimethoxy-1,2,3,4-tetrahydroisoquinoline], for which the “Decrease of acute toxicity” value in the data set on white mice amounted to 3.5 fold. The compound also returned an LD50 in data set [1] of 980 mg/kg. In the data set on rabbit eye cornea, the “Onset of Anesthesia” value turned out to be 3.0 ± 0.8 min, the “Total Duration of Anesthesia” value is 70.0 ± 4.5 min and the “Duration of Complete Anesthesia” value is “+40%”.

`COc1ccc(C2NCCc3cc(OC)c(OC)cc32)cc1OC` (centres unmarked) [Compound 3d, 1-(3′,4′-Dimethoxyphenyl)-6,7-dimethoxy-1,2,3,4-tetrahydroisoquinoline]: the “Decrease of acute toxicity” value with white mice is on record as 2.5–2.6 fold. Further, the LD50 in data set [1] is 670 mg/kg. In the data set with rabbit eye cornea, the “Onset of Anesthesia” value stood at 2.0 ± 0.7 min, the “Total Duration of Anesthesia” value was found to be 70.0 ± 2.1 min and the “Duration of Complete Anesthesia” value is given as “+60%”.

Regarding `COc1cc2c(cc1OC)C(c1ccc(O)c(Br)c1)NCC2` (centres unmarked) [Compound 3e, 1-(3′-Bromo-4′-hydroxyphenyl)-6,7-dimethoxy-1,2,3,4-tetrahydroisoquinoline], the “Decrease of acute toxicity” value in the data set on white mice came out at 13.75 fold. The compound further returned an LD50 in data set [1] of 3850 mg/kg. Also, in the data set with rabbit eye cornea, the “Onset of Anesthesia” value was 5.0 ± 0.9 min, the “Total Duration of Anesthesia” value was found to be 80.0 ± 3.2 min and the “Duration of Complete Anesthesia” value was “+49%”.

Turning to `COc1cc2c(cc1OC)C(c1cc(Br)ccc1O)NCC2` (centres unmarked) [Compound 3f, 1-(5′-Bromo-2′-hydroxyphenyl)-6,7-dimethoxy-1,2,3,4-tetrahydroisoquinoline], in the data set with white mice, the “Decrease of acute toxicity” value was “did not result in a significant decrease of toxicity”. The compound also yielded an LD50 in data set [1] of 305 mg/kg. Also, in the data set with rabbit eye cornea, the “Onset of Anesthesia” value is 1.0 ± 0.5 min; the “Total Duration of Anesthesia” value is given as 64.0 ± 3.8 min; the “Duration of complete anesthesia, times longer than lidocaine” value (“Duration … times longer than lidocaine” for short) was determined as 1.6 times.

`COc1cc(Br)c(C2NCCc3cc(OC)c(OC)cc32)cc1OC` (centres unmarked) [Compound 3g, 1-(2′-Bromo-4′,5′-dimethoxyphenyl)-6,7-dimethoxy-1,2,3,4-tetrahydroisoquinoline]: the “Decrease of acute toxicity” value in the data set with white mice was “no significant change in acute toxicity”. In data set [1], this compound had an LD50 of 290 mg/kg. For the same compound, in the data set with rabbit eye cornea, the “Onset of Anesthesia” value is on record as 2.0 ± 1.0 min, the “Total Duration of Anesthesia” value is 44.0 ± 3.5 min and the “Duration of Complete Anesthesia” value is reported as “+90%”.

On to `COc1cc(Br)c(C2NCCc3cc(OC)c(OC)cc32)cc1O` (centres unmarked) [Compound 3h, 1-(2′-Bromo-5′-hydroxy-4′-methoxyphenyl)-6,7-dimethoxy-1,2,3,4-tetrahydroisoquinoline], for which the “Decrease of acute toxicity” value in the data set on white mice was “about 2 fold”. For the same compound, in data set [1], the LD50 was found to be 550 mg/kg. In the data set with rabbit eye cornea, the “Onset of Anesthesia” value is recorded as 1.0 ± 0.4 min; the “Total Duration of Anesthesia” value amounted to 40.0 ± 3.2 min; the “Duration of Complete Anesthesia” value is reported as “+170%”; the “Duration … times longer than lidocaine” value came to 1.7 times.

In the case of `COc1cc2c(cc1OC)C(c1ccc3c(c1)OCO3)NCC2` (centres unmarked) [Compound 3i, 1-(3′,4′-Methylenedioxyphenyl)-6,7-dimethoxy-1,2,3,4-tetrahydroisoquinoline], the “Decrease of acute toxicity” value with white mice was “did not lead to a change in acute toxicity”. Besides, the LD50 in data set [1] turned out to be 280 mg/kg. Moreover, in the data set with rabbit eye cornea, the “Onset of Anesthesia” value is 2.0 ± 0.4 min, the “Total Duration of Anesthesia” value is 57.0 ± 3.7 min and the “Duration of Complete Anesthesia” value was “+80%”.

With `COc1cc2c(cc1OC)C(c1cc3c(cc1Br)OCO3)NCC2` (centres unmarked) [Compound 3j, 1-(2′-Bromo-4′,5′-methylenedioxyphenyl)-6,7-dimethoxy-1,2,3,4-tetrahydroisoquinoline], in the data set on white mice, the “Decrease of acute toxicity” value came out at 2.5 fold. In addition, the LD50 in data set [1] came to 730 mg/kg. Besides, in the data set on rabbit eye cornea, the “Onset of Anesthesia” value amounted to 2.0 ± 1.0 min, the “Total Duration of Anesthesia” value came to 52.0 ± 4.0 min and the “Duration of Complete Anesthesia” value is listed as “+90%”.

Turning to `COc1cc2c(cc1OC)C(c1cc3c(cc1Cl)OCO3)NCC2` (centres unmarked) [Compound 3k, 1-(4′,5′-Methylenedioxy-2′-chlorophenyl)-6,7-dimethoxy-1,2,3,4-tetrahydroisoquinoline], the “Decrease of acute toxicity” value in the data set with white mice is given as 1.86 fold. This compound registered an LD50 in data set [1] of 520 mg/kg. In the data set with rabbit eye cornea, the “Onset of Anesthesia” value was determined as 2.0 ± 1.2 min, the “Total Duration of Anesthesia” value amounted to 43.0 ± 4.5 min and the “Duration of Complete Anesthesia” value is listed as “+90%”.

Consider `COc1cc2c(cc1OC)C(c1cc(Br)c(O)c(OC)c1)NCC2` (centres unmarked) [Compound 3l, 1-(5′-Bromo-4′-hydroxy-3′-methoxyphenyl)-6,7-dimethoxy-1,2,3,4-tetrahydroisoquinoline], for which the “Decrease of acute toxicity” value in the data set with white mice is 5.6 fold. Also, in data set [1], the LD50 stood at 1560 mg/kg. In the data set with rabbit eye cornea, the “Onset of Anesthesia” value amounted to 5.0 ± 1.2 min; the “Total Duration of Anesthesia” value is 89.0 ± 3.0 min; the “Duration of Complete Anesthesia” value was “+140%”; the “Duration … times longer than lidocaine” value came out at 1.4 times.

`COc1cc2c(cc1OC)C(c1ccc([N+](=O)[O-])cc1)NCC2` (centres unmarked) [Compound 3m, 1-(4′-Nitrophenyl)-6,7-dimethoxy-1,2,3,4-tetrahydroisoquinoline]: in data set [1], the LD50 came out at 1950 mg/kg. In the data set with rabbit eye cornea, the “Onset of Anesthesia” value is 3.0 ± 0.4 min, the “Total Duration of Anesthesia” value is recorded as 48.0 ± 2.8 min and the “Duration of Complete Anesthesia” value was “+80%”.

Turning to `COc1cc2c(cc1OC)C(c1cccc([N+](=O)[O-])c1)NCC2` (centres unmarked) [Compound 3n, 1-(3′-Nitrophenyl)-6,7-dimethoxy-1,2,3,4-tetrahydroisoquinoline], the LD50 with white mice (intragastric administration, N = 10, Litchfield–Wilcoxon) is 525 (460.5 ± 598.5) mg/kg. Further, the LD50 in data set [1] amounted to 460 ± 598 mg/kg. Also, in the data set on rabbit eye cornea, the “Onset of Anesthesia” value was found to be 3.0 ± 1.0 min; the “Total Duration of Anesthesia” value came out at 37.0 ± 3.2 min; the “Duration of Complete Anesthesia” value is “+260%”; the “Duration … times longer than lidocaine” value is 2.6 times. Moreover, the “Local irritant effects on rabbit eyes” value with rabbit eye cornea is “eye irritation and redness; also recorded: reversible irritation and redness of the eyes”.

`COc1cc2c(cc1OC)C(c1cccc(Br)c1)NCC2` (centres unmarked) [Compound 3o, 1-(3′-Bromophenyl)-6,7-dimethoxy-1,2,3,4-tetrahydroisoquinoline]: the “Decrease of acute toxicity” value in the data set on white mice is on record as 2.5–2.6 fold. Moreover, the LD50 in data set [1] was determined as 710 mg/kg. Further, in the data set with rabbit eye cornea, the “Onset of Anesthesia” value is 2.0 ± 0.4 min, the “Total Duration of Anesthesia” value is on record as 115.0 ± 3.8 min and the “Duration of Complete Anesthesia” value is “+130%”.

Take `COc1cc2c(cc1OC)C(c1ccccc1OC)NCC2` (centres unmarked) [Compound 3p, 1-(2′-Methoxyphenyl)-6,7-dimethoxy-1,2,3,4-tetrahydroisoquinoline]: in the data set with white mice, the “Decrease of acute toxicity” value is listed as “did not result in a significant decrease of toxicity”. The compound also registered an LD50 in data set [1] of 300 mg/kg. In the data set with rabbit eye cornea, the “Onset of Anesthesia” value was 3.0 ± 0.8 min; the “Total Duration of Anesthesia” value is 67.0 ± 3.6 min; the “Duration of Complete Anesthesia” value is given as “+300%”; the “Duration … times longer than lidocaine” value was determined as 3.0 times.

For `COc1cc2c(cc1OC)C(c1ccc(N(C)C)cc1)NCC2` (centres unmarked) [Compound 3q, 1-(4′-Dimethylaminophenyl)-6,7-dimethoxy-1,2,3,4-tetrahydroisoquinoline], in the data set on white mice, the “Decrease of acute toxicity” value is recorded as roughly 4.5 fold. Moreover, the LD50 in data set [1] is 1250 mg/kg. In the data set with rabbit eye cornea, the “Onset of Anesthesia” value was 2.0 ± 0.6 min; the “Total Duration of Anesthesia” value came out at 45.0 ± 4.1 min; the “Duration of Complete Anesthesia” value is given as “+220%”; the “Duration … times longer than lidocaine” value was found to be 2.2 times.

With `COc1cc2c(cc1OC)C(c1ccc(Cl)cc1)NCC2` (centres unmarked) [Compound 3r, 1-(4′-Chlorophenyl)-6,7-dimethoxy-1,2,3,4-tetrahydroisoquinoline], in the data set with white mice, the “Decrease of acute toxicity” value is given as 2.5–2.6 fold. The compound further returned an LD50 in data set [1] of 740 mg/kg. In the data set on rabbit eye cornea, the “Onset of Anesthesia” value was 2.0 ± 0.6 min; the “Total Duration of Anesthesia” value was determined as 35.0 ± 3.4 min; the “Duration of Complete Anesthesia” value is listed as “+150%”; the “Local irritant effects on rabbit eyes” value is “eye irritation and redness; also recorded: reversible irritation and redness of the eyes”.

For the compound `COc1cc2c(cc1OC)C(c1cccc(N)c1)NCC2` (centres unmarked) [Compound 4b, 1-(3′-Aminophenyl)-6,7-dimethoxy-1,2,3,4-tetrahydroisoquinoline], in data set [1], the LD50 came to 750 mg/kg. In the data set on rabbit eye cornea, the “Onset of Anesthesia” value is given as 3.0 ± 0.7 min, the “Total Duration of Anesthesia” value was found to be 44.0 ± 4.1 min and the “Duration of Complete Anesthesia” value is “+0%”.

For the compound `CCN(CC)CC(=O)Nc1c(C)cccc1C` [Lidocaine, reference compound], in the data set with rabbit eye cornea, the “Onset of Anesthesia” value stood at 5.0 ± 0.5 min and the “Total Duration of Anesthesia” value was 52.7 ± 4.9 min.

(Values after article PMC9864514, “Evaluation of the Local Anesthetic Activity, Acute Toxicity, and Structure–Toxicity Relationship in Series of Synthesized 1-Aryltetrahydroisoquinoline Alkaloid Derivatives In Vivo and In Silico” (Molecules, 2023).)
